What was measured:
[1] = in vivo; cited from earlier work
[2] = fervescence activity by intravenous injection (rising of body temperature), 1 mg/kg; type: in vivo, Wister male rats; conditions: 1 mg/kg intravenous, urethane-anesthetized rats
Protocol: fervescence activity by intravenous injection Test animals were Wister male rats (8 weeks old) weighing 200±10 g. The rats were applied to anesthesia by intraperitoneal injection of 1.25 g/kg of urethane. Each test drug was dissolved into ethyl alcohol. The ethyl alcohol solution was diluted with Ringer's solution at least 50 times just before use and 1 mg/kg of the each test drug was intravenously administered. Body temperature was measured in the same manner as in Example 1. Ringer's solution containing ethyl alcohol was administered as control. Rising of body temperature is shown by the rising degree (°C.) from the temperature before administration.

acute toxicity (LD50) = conditions: mouse, in vivo; mice, intravenous injection
Source text: Acute toxicity (LD50) of the test drugs was estimated on Slc-ddY female mice (5-weeks old) by an intravenous injection.

[3] = fervescence activity by intracerebroventricular injection (rising of body temperature); type: in vivo, Wister male rats; conditions: 400 ng in 3 μl into lateral ventricle, urethane-anesthetized rats, rectal temperature
Protocol: fervescence activity by intracerebroventricular injection
Wister male rats (8 weeks old) were used as test animals.
Rats were applied to anesthesia by intraperitoneal injection with 1.25 g/kg of urethane and a stainless guide cannula was inserted into the lateral ventricle for administration of a test drug according to Pellegrino's Rat brain atras.
Each test drug was dissolved into an artificial cerebrospinal fluid and 400 ng as drug in 3 μl was injected through the injection cannula for 15 seconds. The artificial cerebrospinal fluid alone was injected as control. Body temperature was measured continuously at the rectum. Rising of body temperature is shown by the rising degree (°C.) from the temperature before administration.

[4] = fervescence (recovery of body temperature) activity at hemorrhage load; type: in vivo, Wister male rats; conditions: rat loaded with hemorrhage
Protocol: fervescence (recovery of body temperature) activity at hemorrhage load
Wister male rats (weight: 200 g) were subcutaneously injected on the back with 1.5 g/kg of urethane, subjected to anesthesia. Hemorrhage was then induced by withdrawal of blood by puncture of the heart for the total volume of 3 ml equivalent to 1.5% of the body weight. After kept in a room for 60 minutes, the rats were administered intravenously with test solutions prepared by dissolving test drugs into Ringer's solution so as to administer the rat at a dose of 0.5 or 1 mg/kg, and change of the body temperature was observed. Ringer's solution was administered as control.
In the figures, (1), (2) and (3) correspond to the results of administration of doses 1 mg/kg, 0.5 mg/kg and Ringer's solution alone, respectively.

[5] = sedation activity and rising of body temperature in dog; type: in vivo, hybrid adult dog; conditions: intravenous
Source text: Sedation Activity A 19-methyl type compound having strong fervescence activity was compared with PGE2 […] sedation activity. A hybrid adult dog was held on a holder for dog and intravenously administered with a test drug dissolved in Ringer's solutions at the forefoot. Sedation activity was judged as follows: Sedation Degree 1: Disappearance of body movement 2: Closing of the eyes 3: Leaning on the holding belt

[6] = fervescence activity by intravenous injection (rising of body temperature), 5 mg/kg; type: in vivo, Wister male rats; conditions: 5 mg/kg intravenous, urethane-anesthetized rats
Protocol: Test animals were Wister male rats (8 weeks old) weighing 200±10 g. The rats were applied to anesthesia by intraperitoneal injection of 1.25 g/kg of urethane. Each test drug was dissolved into ethyl alcohol. The ethyl alcohol solution was diluted with Ringer's solution at least 50 times just before use and 1 mg/kg of the each test drug was intravenously administered. Body temperature was measured in the same manner as in Example 1.
Ringer's solution containing ethyl alcohol was administered as control. Rising of body temperature is shown by the rising degree (°C.) from the temperature before administration.
Experiment was carried out in the same manner as in Example 2 except for that test drugs were administered intravenously with a dose of 5 mg/kg.

CCCCC[C@H](O)/C=C/[C@H]1[C@H](O)CC(=O)[C@@H]1C/C=C\CCCC(=O)O [Test drug 58, PGE2]
blood pressure (known) [1]: strongly decreases the blood pressure
fervescence activity (known) [1]: known to have fervescence activity

CCCCCC(=O)CC[C@H]1[C@H](O)CC(=O)[C@@H]1CCCCCCC(=O)OCC [compound 2]
Rising of Body Temperature [2]: +0.9 °C
LD50 (acute toxicity (LD50)): > 1000 mg/kg
Rising of Body Temperature [3]: +0.4 °C

CCOC(=O)CCCCC(=O)C[C@H]1C(=O)C[C@@H](O)[C@@H]1CCC(=O)CCCC(C)C [compound 16]
Rising of Body Temperature [2]: +0.8 °C
LD50 (acute toxicity (LD50)): > 300 mg/kg
Rising of Body Temperature ([4]; 0.5 mg/kg intravenous): +0.4 °C
Rising of Body Temperature ([4]; 1 mg/kg intravenous): +0.6 °C
Rising of Body Temperature ([5]; 0.5 mg/kg): 1.1 °C

CCCCCC(=O)CC[C@H]1[C@H](O)CC(=O)[C@@H]1C/C=C\CCCC(=O)OC [compound 23]
Rising of Body Temperature [2]: +1.0 °C
LD50 (acute toxicity (LD50)): > 1000 mg/kg
Rising of Body Temperature [3]: +0.4 °C

CCCCCC(=O)CC[C@H]1[C@H](O)CC(=O)[C@@H]1C/C=C\CCCC(=O)OCC [compound 24]
Rising of Body Temperature [2]: +0.5 °C
LD50 (acute toxicity (LD50)): 1000 mg/kg
Rising of Body Temperature [3]: +0.5 °C
Rising of Body Temperature ([4]; 0.5 mg/kg intravenous): +0.8 °C
Rising of Body Temperature ([4]; 1 mg/kg intravenous): +1.1 °C

CCCCCC(=O)CC[C@H]1[C@H](O)CC(=O)[C@@H]1C/C=C\CCCC(=O)OCCC [compound 25]
Rising of Body Temperature [6]: +1.3 °C
Rising of Body Temperature [2]: +0.2 °C

CCCCCC(=O)CC[C@H]1[C@H](O)CC(=O)[C@@H]1C/C=C\CCCC(=O)OCCCC [compound 26]
Rising of Body Temperature [6]: +0.9 °C
Rising of Body Temperature [2]: +0.2 °C
Rising of Body Temperature [3]: +0.1 °C

CCCCC[C@H](O)/C=C/[C@H]1[C@H](O)CC(=O)[C@@H]1C/C=C\CCCC(=O)OC [compound 59]
Rising of Body Temperature [2]: +1.2 °C
Rising of Body Temperature ([5]; 0.01 mg/kg): 0.4 °C

CCOC(=O)CCCCC(=O)C[C@H]1C(=O)C[C@@H](O)[C@@H]1/C=C/C(=O)CCCC(C)C [compound 62]
Rising of Body Temperature [6]: +0.63 °C
